Measurements taken from patent US20090143279A1 (priority 2007, published 2009).
Read-outs that look alike come from different tables or passages of the source.

How the values were obtained:
[1] = test system: C2C12 myotubes
[2] = test system: mtOXPHOS transcripts; format: cell-based, mouse
[3] = test system: mitochondrial membrane potential; format: cell-based, mouse
[4] = test system: cytochrome c; format: cell-based, mouse
[5] = test system: OXPHOS gene expression; format: cell-based, mouse
[6] = test system: cellular dehydrogenase activity
[7] = test system: reactive oxygen species; format: cell-based, mouse
[8] = test system: nuOXPHOS transcripts; format: cell-based, mouse
[9] = composite Z-score vs mock-treated (DMSO) wells, Conc 20 μM
[10] = composite Z-score vs DMSO wells, Conc 20 μM
[11] = 20 μM, composite Z-score vs DMSO
[12] = composite Z-score vs DMSO, Conc 20 μM
[13] = 14.44 μM, composite Z-score vs DMSO
[14] = normalized composite Z-score vs mock-treated (DMSO) wells, Conc 20 μM
[15] = composite Z-score vs mock-treated (DMSO) wells, concentration of each compound in μM
[16] = Conc 20 μM, normalized score vs mock-treated (DMSO) wells

In the case of `COC(=O)C[C@H]1C2(C)CC34OC5(C)O[C@@]6([C@H](OC)C(OC(=O)C(C)C)[C@]7(C)C(/C(=C(/OC)C(C)C)C(=O)O[C@H]7c7ccoc7)[C@@]6(O5)[C@H](OC)[C@@]3(OC)C2OC(C)=O)[C@]14C` (some centres unmarked) [chukrasin methyl ether], the Viability [1, 9] is reported as −0.822, the mitoOX [2, 9] is reported as 0.198 and the ΔΨm [3, 9] is reported as −1.084. The cyt c [4, 9] was −0.248, the GE-HTS [5, 9] was 0.352 and the MTT [6, 9] was −0.818. The ROS [7, 9] was 0.777 and the nucOX [8, 9] was 0.417.
Work on `Oc1cc(O)c2c(c1)O[C@H](c1ccc(O)c(O)c1)[C@@H](O)C2` [cianidanol, reference compound] yielded a Viability [1, 10] of 0.630, a mitoOX [2, 10] of 0.347 and a ΔΨm [3, 10] of −1.746. For the same molecule, the cyt c [4, 10] was 0.639, the GE-HTS [5, 10] was −0.113 and the MTT [6, 10] was −1.471. For the same molecule, the ROS [7, 10] was −0.371 and the nucOX [8, 10] was −0.357.
`Cc1cc(C2CCCCC2)n(O)c(=O)c1` [ciclopirox olamine] gave a Viability [1, 11] of −1.409, a mitoOX [2, 11] of −0.569 and a ΔΨm [3, 11] of 2.355. The cyt c [4, 11] was −0.381, the GE-HTS [5, 11] was −0.965 and the MTT [6, 11] was −3.390. It also gave an ROS [7, 11] of −1.545 and a nucOX [8, 11] of −1.098.
With `CC1=C2C(=CO[C@H](C)[C@H]2C)C(O)=C(C(=O)O)C1=O` [citrinin] the Viability [1, 10] was −0.040, the mitoOX [2, 10] was 0.218 and the ΔΨm [3, 10] was −0.590. The cyt c [4, 10] was 0.012, the GE-HTS [5, 10] was 0.608 and the MTT [6, 10] was −0.980. For the same molecule, the ROS [7, 10] was 0.122 and the nucOX [8, 10] was 0.730.
With `CC[C@H]1OC(=O)[C@H](C)[C@@H](O[C@H]2C[C@@](C)(OC)[C@@H](O)[C@H](C)O2)[C@H](C)[C@@H](O[C@@H]2O[C@H](C)C[C@H](N(C)C)[C@H]2O)[C@](C)(OC)C[C@@H](C)C(=O)[C@H](C)[C@@H](O)[C@]1(C)O` [clarithromycin] the Viability [1, 12] was −0.763, the mitoOX [2, 12] was −1.928 and the ΔΨm [3, 12] was 0.434. The cyt c [4, 12] was −1.095, the GE-HTS [5, 12] was −2.161 and the MTT [6, 12] was −1.086. For the same molecule, the ROS [7, 12] was 0.293 and the nucOX [8, 12] was −2.046.
Molecule `CC(C)(C)NCC(O)c1cc(Cl)c(N)c(Cl)c1` (centres unmarked) [clenbuterol] has a Viability [1, 13] of 0.134, a mitoOX [2, 13] of 0.011 and a ΔΨm [3, 13] of −1.139. For the same molecule, the cyt c [4, 13] was −0.261, the GE-HTS [5, 13] was 0.054 and the MTT [6, 13] was −1.330. For the same molecule, the ROS [7, 13] was 0.914 and the nucOX [8, 13] was 0.063.
For `C[N+]12CCC(CC1)C(OC(=O)C(O)(c1ccccc1)c1ccccc1)C2` (centres unmarked) [clidinium], the Viability [1] was 0.172, the Viability [1, 11] was −0.084 and the mitoOX [2] was −0.903. The mitoOX [2, 11] was −0.602, the ΔΨm [3] was −0.715 and the ΔΨm [3, 11] was −0.772. The cyt c [4] was 0.176, the cyt c [4, 11] was −0.062 and the GE-HTS [5] was −0.462. For the same molecule, the GE-HTS [5, 11] was −0.556, the MTT [6] was −2.250 and the MTT [6, 11] was −1.393. It also gave an ROS [7] of 1.870, an ROS [7, 11] of 1.625 and a nucOX [8] of −0.202. For the same molecule, the nucOX [8, 11] was −0.503.
With `COC(=O)[C@H](c1ccccc1Cl)N1CCc2sccc2C1` [clopidogrel] the Viability [1] was −1.134, the mitoOX [2] was −1.441 and the ΔΨm [3] was −0.698. For the same molecule, the cyt c [4] was 0.410, the GE-HTS [5] was −1.470 and the MTT [6] was −1.447. The ROS [7] was −0.196 and the nucOX [8] was −1.328.
With `CC(=O)OC1CCC23CC1(C)CCC2C(C)(C)CC3OC(C)=O` (centres unmarked) [clovanediol diacetate] the Viability [1, 14] was −0.119, the mitoOX [2, 14] was −0.026 and the ΔΨm [3, 14] was −0.599. For the same molecule, the cyt c [4, 14] was 0.384, the GE-HTS [5, 14] was −0.020 and the MTT [6, 14] was −0.708. For the same molecule, the ROS [7, 14] was −0.318 and the nucOX [8, 14] was 0.007.
`Cc1onc(-c2ccccc2Cl)c1C(=O)N[C@@H]1C(=O)N2[C@@H]1SC(C)(C)[C@@H]2C(=O)O` [cloxacillin] was tested, and the Viability [1, 11] was −0.395, the mitoOX [2, 11] was −0.508 and the ΔΨm [3, 11] was −0.339. The cyt c [4, 11] was 0.459, the GE-HTS [5, 11] was −0.568 and the MTT [6, 11] was −1.769. For the same molecule, the ROS [7, 11] was 0.259 and the nucOX [8, 11] was −0.506.
`C/C1=C2/[N-][C@H]([C@H](CC(N)=O)[C@@]2(C)CCC(=O)NC[C@@H](C)OP(=O)([O-])O[C@H]2[C@@H](O)[C@@H](n3cnc4cc(C)c(C)cc43)O[C@@H]2CO)[C@]2(C)N=C(/C(C)=C3N=C(/C=C4N=C1[C@@H](CCC(N)=O)C\4(C)C)[C@@H](CCC(N)=O)[C@]\3(C)CC(N)=O)[C@@H](CCC(N)=O)[C@]2(C)CC(N)=O.[Co]` [cobalamine] was tested, and the Viability [1, 15] was −0.821, the mitoOX [2, 15] was −0.393 and the ΔΨm [3, 15] was 0.097. For the same molecule, the cyt c [4, 15] was −0.617, the GE-HTS [5, 15] was −0.402 and the MTT [6, 15] was −1.369. The ROS [7, 15] was 2.944 and the nucOX [8, 15] was −0.373.
`COC1=C(OC)C(=O)C(C/C=C(\C)CC/C=C(\C)CC/C=C(\C)CC/C=C(\C)CC/C=C(\C)CC/C=C(\C)CC/C=C(\C)CC/C=C(\C)CC/C=C(\C)CCC=C(C)C)=C(C)C1=O` [coenzyme Q10] was tested, and the “Viability (composite Z-score)” value [1, 16] was 0.166, the “mitoOX (composite Z-score)” value [2, 16] was 0.226 and the “ΔΨm (composite Z-score)” value [3, 16] was 0.920. For the same molecule, the “cyt c (composite Z-score)” value [4, 16] was 0.636, the “GE-HTS (composite Z-score)” value [5, 16] was 0.366 and the “MTT (composite Z-score)” value [6, 16] was −1.758. For the same molecule, the “ROS (composite Z-score)” value [7, 16] was 1.179 and the “nucOX (composite Z-score)” value [8, 16] was 0.391.
`COc1cc2c(c(OC)c1OC)-c1ccc(=O)c(O)cc1[C@@H](NC(C)=O)CC2` [colchiceine] showed a Viability [1, 12] of −0.333, a mitoOX [2, 12] of 1.192 and a ΔΨm [3, 12] of −0.812. For the same molecule, the cyt c [4, 12] was −0.908, the GE-HTS [5, 12] was 1.832 and the MTT [6, 12] was −3.186. The ROS [7, 12] was 0.469 and the nucOX [8, 12] was 1.935.
For `COc1cc(/C=C/CO)ccc1O` [coniferyl alcohol], the “Viability (composite Z-score)” value [1, 16] was −0.771, the “mitoOX (composite Z-score)” value [2, 16] was −0.251 and the “ΔΨm (composite Z-score)” value [3, 16] was −0.719. The “cyt c (composite Z-score)” value [4, 16] was 0.296, the “GE-HTS (composite Z-score)” value [5, 16] was −0.593 and the “MTT (composite Z-score)” value [6, 16] was −1.094. For the same molecule, the “ROS (composite Z-score)” value [7, 16] was −0.450 and the “nucOX (composite Z-score)” value [8, 16] was −0.688.
With `C[C@]12CCC(=O)C=C1CC[C@@H]1[C@@H]2C(=O)C[C@@]2(C)[C@H]1CC[C@]2(O)C(=O)CO` [cortisone] the Viability [1, 12] was 0.644, the mitoOX [2, 12] was −0.830 and the ΔΨm [3, 12] was −0.232. It also gave a cyt c [4, 12] of −0.078, a GE-HTS [5, 12] of −0.428 and an MTT [6, 12] of −0.146. The ROS [7, 12] was 0.527 and the nucOX [8, 12] was −0.165.
With `O=c1cc(-c2ccc(O)cc2)oc2cc(O[C@@H]3O[C@H](CO)[C@@H](O)[C@H](O)[C@H]3O)cc(O)c12` [cosmosiin] the Viability [1, 12] was 0.141, the mitoOX [2, 12] was −0.611 and the ΔΨm [3, 12] was 0.053. For the same molecule, the cyt c [4, 12] was −0.009, the GE-HTS [5, 12] was −0.433 and the MTT [6, 12] was −0.801. It also gave an ROS [7, 12] of −0.052 and a nucOX [8, 12] of −0.287.
With `COc1c2c(cc3c1OCO3)CC[N+](C)=C2` [cotarnine] the Viability [1, 9] was −0.398, the mitoOX [2, 9] was −0.151 and the ΔΨm [3, 9] was −1.103. It also gave a cyt c [4, 9] of 0.068, a GE-HTS [5, 9] of 0.049 and an MTT [6, 9] of −0.587. For the same molecule, the ROS [7, 9] was −0.007 and the nucOX [8, 9] was 0.159.
`COc1ccccc1/C=C/C(=O)O` [coumarinic acid methyl ether] was tested, and the “Viability (composite Z-score)” value [1] was −0.844, the “mitoOX (composite Z-score)” value [2] was 0.383 and the “ΔΨm (composite Z-score)” value [3] was −1.070. The “cyt c (composite Z-score)” value [4] was 0.170, the “GE-HTS (composite Z-score)” value [5] was 0.143 and the “MTT (composite Z-score)” value [6] was −2.099. The “ROS (composite Z-score)” value [7] was 0.917 and the “nucOX (composite Z-score)” value [8] was 0.031.
